Results taken from US20230279002A1, “Polymorphs of Crystalline Forms of 3,10-dimethoxy-5,8,13,13a-tetrahydro-6H-isoquinolino[3,2-a]isoquinolin-9-yl 3-fluorobenzenesulfonate and Salts Thereof” (CVI Pharmaceuticals Limited, priority 2020, published 2023).
“Also recorded” adds a separate entry of the source.

Experiments:
Format in all cases: physicochemical
[1] = DVS (Dynamic Vapor Sorption) moisture sorption/desorption, hygroscopicity classification; conditions: 25 °C; for Change In Mass (%) - ref, Desorption / Change In Mass (%) - ref, Sorption / Change In Mass (%) - ref, Hysteresis: Cycle 1
Protocol: DVS (Dynamic Vapor Sorption): Around 10-20 mg of samples were used to test its moisture sorption/desorption profiles at 25° C. under 0%˜95%˜0% relative humidity (RH) cycle using dm/dt: 0.01%/min equilibrium and a measurement step of 5% RH.
Hygroscopicity Classification: Typical %-moisture gain as a function of increased RH was determined by DVS. Samples went through a dynamic test isothermally at 25° C. The test was divided into 2 processes, one was absorption process, the other was desorption process. RH ranged from 0% to 95% with 5% RH for each step, and when dm/dt<=0.01%, it was assumed the water sorption/desorption equilibrium is reached.

[2] = Solubility in SGF, FaSSIF, FeSSIF, 0.1M HCl, pH 4.5 and pH 6.8 aqueous at 25° C. (HPLC); conditions: for Solubility conc.(mg/ml): solubility of salts transformed to freebase; for Final pH: solubility test
Protocol: Solubility: Excess drug substance was equilibrated with SGF (Simulated Gastric Fluid), FaSSIF (Simulated Small Intestinal Fluid under Fasted state), FeSSIF (Simulated Small Intestinal Fluid under Fed state), 0.1M HCl, pH 4.5 aqueous, and pH 6.8 aqueous at 25° C. After stirring for 20˜24 h, each sample was filtered, diluted appropriately and analyzed by HPLC. The experiment was terminated once a solubility target of 5 mg/mL was reached.

[3] = Solid stability at 40° C./0% RH (closed) and 40° C./75% RH (open), HPLC; conditions: for 0 day % remaining / 7 day % remaining / 21 day % remaining: solid
Outline: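 Solid compound (5 mg) stored in the dark at 40 °C/0% RH in closed vials and at 40 °C/75% RH open. Samples analysed by HPLC at day 0, 5 and 10, or at days 0, 7 and 21, depending on the study.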

[4] = Solution stability in 0.1 N HCl, pH 4.5 buffer and pH 6.8 buffer at 25° C. and 37° C., HPLC
Protocol: Solution stability: A stock solution of compound (1.0 mg/mL) in MeOH was diluted with 0.1 N HCl, pH 4.5 buffer (acetate) and pH 6.8 buffer to reach constant ionic strength of 0.15 M and the same final concentration (50 μg/mL, 40% MeOH).
A stock solution of 1b and 3b (1.0 mg/mL) in MeOH was diluted with pH 6.8 buffer to reach constant ionic strength of 0.15M and the same final concentration (25 μg/mL, 40% […]).
The solutions were stored at 25° C. and 37° C.

[5] = TGA (Thermal Gravimetric Analysis) weight loss; conditions: room temperature to 120° C.
Protocol: TGA (Thermal Gravimetric Analysis): Samples of compounds (4˜6 mg) were weighed into the pan, and heated under nitrogen purge using a ramp rate of 20° C./min over the range of 30° C.˜350° C.

3,10-dimethoxy-5,8,13,13a-tetrahydro-6H-isoquinolino[3,2-a]isoquinolin-9-yl 3-fluorobenzenesulfonate [Compound 1b]
Hygroscopicity classification by DVS [1]: non-hygroscopic; also recorded: not hygroscopic
Change In Mass (%) - ref, Desorption ([1]; Target RH 0.0 %): 0.0000%
Change In Mass (%) - ref, Sorption ([1]; Target RH 0.0 %): 0.0000%
Change In Mass (%) - ref, Desorption ([1]; Target RH 5.0 %): 0.0094%
Change In Mass (%) - ref, Hysteresis ([1]; Target RH 5.0 %): 0.0031%
Change In Mass (%) - ref, Sorption ([1]; Target RH 5.0 %): 0.0063%
Change In Mass (%) - ref, Desorption ([1]; Target RH 10.0 %): 0.0157%
Change In Mass (%) - ref, Hysteresis ([1]; Target RH 10.0 %): 0.0052%
Change In Mass (%) - ref, Sorption ([1]; Target RH 10.0 %): 0.0104%
Change In Mass (%) - ref, Desorption ([1]; Target RH 15.0 %): 0.0198%
Change In Mass (%) - ref, Hysteresis ([1]; Target RH 15.0 %): 0.0063%
Change In Mass (%) - ref, Sorption ([1]; Target RH 15.0 %): 0.0136%
Change In Mass (%) - ref, Desorption ([1]; Target RH 20.0 %): 0.0251%
Change In Mass (%) - ref, Hysteresis ([1]; Target RH 20.0 %): 0.0073%
Change In Mass (%) - ref, Sorption ([1]; Target RH 20.0 %): 0.0178%
Change In Mass (%) - ref, Desorption ([1]; Target RH 25.0 %): 0.0292%
Change In Mass (%) - ref, Hysteresis ([1]; Target RH 25.0 %): 0.0084%
Change In Mass (%) - ref, Sorption ([1]; Target RH 25.0 %): 0.0209%
Change In Mass (%) - ref, Desorption ([1]; Target RH 30.0 %): 0.0334%
Change In Mass (%) - ref, Hysteresis ([1]; Target RH 30.0 %): 0.0104%
Change In Mass (%) - ref, Sorption ([1]; Target RH 30.0 %): 0.0230%
Change In Mass (%) - ref, Desorption ([1]; Target RH 35.0 %): 0.0386%
Change In Mass (%) - ref, Hysteresis ([1]; Target RH 35.0 %): 0.0125%
Change In Mass (%) - ref, Sorption ([1]; Target RH 35.0 %): 0.0261%
Change In Mass (%) - ref, Desorption ([1]; Target RH 40.0 %): 0.0449%
Change In Mass (%) - ref, Hysteresis ([1]; Target RH 40.0 %): 0.0094%
Change In Mass (%) - ref, Sorption ([1]; Target RH 40.0 %): 0.0355%
Change In Mass (%) - ref, Desorption ([1]; Target RH 45.0 %): 0.0501%
Change In Mass (%) - ref, Hysteresis ([1]; Target RH 45.0 %): 0.0104%
Change In Mass (%) - ref, Sorption ([1]; Target RH 45.0 %): 0.0397%
Change In Mass (%) - ref, Desorption ([1]; Target RH 50.0 %): 0.0543%
Change In Mass (%) - ref, Hysteresis ([1]; Target RH 50.0 %): 0.0115%
Change In Mass (%) - ref, Sorption ([1]; Target RH 50.0 %): 0.0428%
Change In Mass (%) - ref, Desorption ([1]; Target RH 55.0 %): 0.0606%
Change In Mass (%) - ref, Hysteresis ([1]; Target RH 55.0 %): 0.0146%
Change In Mass (%) - ref, Sorption ([1]; Target RH 55.0 %): 0.0460%
Change In Mass (%) - ref, Desorption ([1]; Target RH 60.0 %): 0.0658%
Change In Mass (%) - ref, Hysteresis ([1]; Target RH 60.0 %): 0.0178%
Change In Mass (%) - ref, Sorption ([1]; Target RH 60.0 %): 0.0480%
Change In Mass (%) - ref, Desorption ([1]; Target RH 65.0 %): 0.0689%
Change In Mass (%) - ref, Hysteresis ([1]; Target RH 65.0 %): 0.0178%
Change In Mass (%) - ref, Sorption ([1]; Target RH 65.0 %): 0.0512%
Change In Mass (%) - ref, Desorption ([1]; Target RH 70.0 %): 0.0731%
Change In Mass (%) - ref, Hysteresis ([1]; Target RH 70.0 %): 0.0157%
Change In Mass (%) - ref, Sorption ([1]; Target RH 70.0 %): 0.0574%
Change In Mass (%) - ref, Desorption ([1]; Target RH 75.0 %): 0.0794%
Change In Mass (%) - ref, Hysteresis ([1]; Target RH 75.0 %): 0.0146%
Change In Mass (%) - ref, Sorption ([1]; Target RH 75.0 %): 0.0648%
Change In Mass (%) - ref, Desorption ([1]; Target RH 80.0 %): 0.0857%
Change In Mass (%) - ref, Hysteresis ([1]; Target RH 80.0 %): 0.0136%
Change In Mass (%) - ref, Sorption ([1]; Target RH 80.0 %): 0.0721%
Change In Mass (%) - ref, Desorption ([1]; Target RH 85.0 %): 0.0940%
Change In Mass (%) - ref, Hysteresis ([1]; Target RH 85.0 %): 0.0136%
Change In Mass (%) - ref, Sorption ([1]; Target RH 85.0 %): 0.0804%
Change In Mass (%) - ref, Desorption ([1]; Target RH 90.0 %): 0.1065%
Change In Mass (%) - ref, Hysteresis ([1]; Target RH 90.0 %): 0.0115%
Change In Mass (%) - ref, Sorption ([1]; Target RH 90.0 %): 0.0951%
Change In Mass (%) - ref, Desorption ([1]; Target RH 95.0 %): 0.1159%
Change In Mass (%) - ref, Sorption ([1]; Target RH 95.0 %): 0.1159%
moisture picked up (DVS) ([1]; at 95% RH): ~0.2%
Solubility conc.(mg/ml) ([2]; 0.1N HCL): 0.605 mg/mL
Solubility conc.(mg/ml) ([2]; FaSSIF): 0.007 mg/mL
Solubility conc.(mg/ml) ([2]; FeSSIF): 0.009 mg/mL
Solubility conc.(mg/ml) ([2]; SGF): 0.588 mg/mL
Solubility conc.(mg/ml) ([2]; Water): 0.008 mg/mL
Solubility conc.(mg/ml) ([2]; pH 4.5 Acetate Buffer (USP)): 0.008 mg/mL
Solubility conc.(mg/ml) ([2]; pH 6.8 Phosphate Buffer (USP)): 0.011 mg/mL
Final pH ([2]; 0.1N HCL): 1.68
Final pH ([2]; FaSSIF): 6.52
Final pH ([2]; FeSSIF): 5.14
Final pH ([2]; SGF): 1.67
Final pH ([2]; Water): 5.42
Final pH ([2]; pH 4.5 Acetate Buffer (USP)): 4.59
Final pH ([2]; pH 6.8 Phosphate Buffer (USP)): 6.91
Solid-state stability (HPLC) ([3]; 40° C./0% RH (closed) and 40° C./75% RH (open), dark, up to 3 weeks): substantially stable
0 day % remaining ([3]; 40° C. (0% RH, closed)): 100.0%
7 day % remaining ([3]; 40° C. (0% RH, closed)): 99.3%
21 day % remaining ([3]; 40° C. (0% RH, closed)): 98.4%
0 day % remaining ([3]; 40° C./75% RH (open)): 100.0%
7 day % remaining ([3]; 40° C./75% RH (open)): 99.2%
21 day % remaining ([3]; 40° C./75% RH (open)): 102.0%
Remaining % ([4]; 25° C., 0.1N HCL, 0 h, 50 μg/mL, 40% MeOH): 100.00%
Remaining % ([4]; 25° C., 0.1N HCL, 3 h, 50 μg/mL, 40% MeOH): 100.53%
Remaining % ([4]; 25° C., 0.1N HCL, 24 h, 50 μg/mL, 40% MeOH): 100.88%
Solution stability ([4]; 25° C., 24 h, 0.1N HCl, pH 4.5 buffer): stable
Solution stability ([4]; 25° C., 24 h, pH 6.8 buffer): clear degradations
Remaining % ([4]; 25° C., pH 4.5, 0 h, 50 μg/mL, 40% MeOH): 100.00%
Remaining % ([4]; 25° C., pH 4.5, 3 h, 50 μg/mL, 40% MeOH): 99.94%
Remaining % ([4]; 25° C., pH 4.5, 24 h, 50 μg/mL, 40% MeOH): 98.79%
Remaining % ([4]; 25° C., pH 6.8*, 0 h, final conc. 25 μg/mL with 40% DMSO): 100.00%
Remaining % ([4]; 25° C., pH 6.8*, 3 h, final conc. 25 μg/mL with 40% DMSO): 99.18%
Remaining % ([4]; 25° C., pH 6.8*, 24 h, final conc. 25 μg/mL with 40% DMSO): 91.23%
Remaining % ([4]; 37° C., 0.1N HCL, 0 h, 50 μg/mL, 40% MeOH): 100.00%
Remaining % ([4]; 37° C., 0.1N HCL, 3 h, 50 μg/mL, 40% MeOH): 101.92%
Remaining % ([4]; 37° C., 0.1N HCL, 24 h, 50 μg/mL, 40% MeOH): 100.14%
Solution stability ([4]; 37° C., 24 h, 0.1N HCl, pH 4.5 buffer): stable
Solution stability ([4]; 37° C., 24 h, pH 6.8 buffer): decomposed
Remaining % ([4]; 37° C., pH 4.5, 0 h, 50 μg/mL, 40% MeOH): 100.00%
Remaining % ([4]; 37° C., pH 4.5, 3 h, 50 μg/mL, 40% MeOH): 99.51%
Remaining % ([4]; 37° C., pH 4.5, 24 h, 50 μg/mL, 40% MeOH): 98.83%
Remaining % ([4]; 37° C., pH 6.8*, 0 h, final conc. 25 μg/mL with 40% DMSO): 100.00%
Remaining % ([4]; 37° C., pH 6.8*, 3 h, final conc. 25 μg/mL with 40% DMSO): 98.97%
Remaining % ([4]; 37° C., pH 6.8*, 24 h, final conc. 25 μg/mL with 40% DMSO): 94.70%
TGA weight loss (in words) [5]: almost no weight loss
